Experimental data as given in ChEMBL document CHEMBL6182910, “Design, Synthesis, and Biological Evaluation of 4-(Difluoromethyl)-1H-imidazole-5-carboxylic Acids/4-(3-Cyanophenoxy)pyrimidine-5-carboxylic Acids as P2Y1 Receptor Antagonists for Ischemic Stroke Treatment” (J Med Chem, 2025).
Calls of active or inactive are those of the source. The calls are words filed in the database; no cut-off is given here.

Columns and labels:
HT-22 = experiment: Neuroprotective activity against H2O2-induced oxidative stress in mouse HT-22 cells assessed as cell viability at 10 uM preincubated for 2 hrs followed by H2O2 addition measured after 24 hrs by MTT assay (reference value: 55 +/- 4.6 %); assay type: functional; conditions: for Activity: time 26.0 hrs; for viability at 10 µM: time 26 hrs, read-out: Activity
Plasma = experiment: Anti-platelet aggregation in platelet-rich plasma of male Japanese white rabbit assessed as inhibition of ADP-induced platelet aggregation preincubated for 15 mins followed by ADP addition measured up to 10 mins by Born's turbidometric method; assay type: functional, cell-free; conditions: Oryctolagus cuniculus

Compound	Activity (HT-22)	IC50 (Plasma) [µM]	viability at 10 µM (HT-22) [%]
N#Cc1ccc(COn2c(-c3cccc(C#N)c3)nc(C3CC3)c2C(=O)O)cc1	inactive	2.51	–
N#Cc1ccc(COn2c(-c3cccc(C#N)c3)nc(C3CCCC3)c2C(=O)O)cc1	inactive	2.53	–
N#Cc1cccc(-c2nc(C(F)F)c(C(=O)O)n2OCc2cccnc2)c1	inactive	> 10	–
COCc1nc(-c2cccc(C#N)c2)n(OCc2ccc(C#N)cc2)c1C(=O)O	inactive	1.62	–
[2H]C([2H])([2H])c1nc(-c2cccc(C#N)c2)n(OCc2ccc(C#N)cc2)c1C(=O)O	–	3.43	73.1
CC1(c2nc(-c3cccc(C#N)c3)n(OCc3ccc(C#N)cc3)c2C(=O)O)CCC1	–	2.99	72.4
N#Cc1cccc(-c2ncc(C(=O)O)c(Nc3ccccc3C#N)n2)c1	–	> 10	81
N#Cc1ccc(COn2c(-c3cccc(C#N)c3)nc(-c3ccsc3)c2C(=O)O)cc1	inactive	1.39	–
N#Cc1ccc(-c2ncc(C(=O)O)c(Nc3ccccc3C#N)n2)cc1	–	9.74	97.8
N#Cc1cccc(-c2nc(C(F)F)c(C(=O)O)n2OCc2cncs2)c1	–	3.77	64.9
N#Cc1cccc(-c2nc(C(F)F)c(C(=O)O)n2OCc2cscn2)c1	–	1.98	86.8
N#Cc1ccc(COn2c(-c3cccc(C#N)c3)nc(-c3cncs3)c2C(=O)O)cc1	inactive	2.63	–
CC(C)Cc1nc(-c2cccc(C#N)c2)n(OCc2ccc(C#N)cc2)c1C(=O)O	–	2.08	76.1
N#Cc1ccc(Oc2nc(-c3cccc(C#N)c3)ncc2C(=O)O)cc1	inactive	4.82	–
CN(C)c1nc(COn2c(-c3cccc(C#N)c3)nc(C(F)F)c2C(=O)O)cs1	–	3.71	62.4
CC(=O)Nc1cccc(Oc2nc(-c3cccc(C#N)c3)ncc2C(=O)O)c1	–	7.99	88.2
N#Cc1ccc(COc2nc(-c3ccc(C#N)cc3)ncc2C(=O)O)cc1	–	> 10	88.2
N#Cc1ccc(-c2ncc(C(=O)O)c(Oc3ccccc3C#N)n2)cc1	–	5.68	96.2
N#Cc1ccc(COn2c(-c3cccc(C#N)c3)nc(-c3cccs3)c2C(=O)O)cc1	inactive	> 10	–
N#Cc1cccc(-c2nc(C(F)F)c(C(=O)O)n2OCc2csc(N3CCOCC3)n2)c1	inactive	4.7	–
N#Cc1ccc(COn2c(-c3cccc(C#N)c3)nc(C(F)(F)F)c2C(=O)O)cc1	–	1.8	75.6

Compound	Activity (HT-22)	IC50 (Plasma) [µM]	viability at 10 µM (HT-22) [%]
N#Cc1ccc(COn2c(-c3cccc(C#N)c3)nc(-c3ccccc3)c2C(=O)O)cc1	inactive	3.33	–
N#Cc1ccc(COn2c(-c3cccc(C#N)c3)nc(-c3cscn3)c2C(=O)O)cc1	inactive	> 10	–
N#Cc1ccc(COn2c(-c3cccc(C#N)c3)nc(-c3cccnc3)c2C(=O)O)cc1	inactive	> 10	–
N#Cc1cccc(-c2ncc(C(=O)O)c(Nc3cccnc3)n2)c1	inactive	> 10	–
N#Cc1ccc(COc2nc(-c3cccc(C#N)c3)ncc2C(=O)O)cc1	inactive	3.08	–
N#Cc1cccc(-c2nc(C(F)F)c(C(=O)O)n2OCc2cocn2)c1	inactive	1.69	–
N#Cc1cccc(COc2nc(-c3cccc(C#N)c3)ncc2C(=O)O)c1	–	2.67	80.7
N#Cc1ccc(COn2c(-c3cccc(C#N)c3)nc(-c3cnccn3)c2C(=O)O)cc1	inactive	4.11	–
N#Cc1ccc(-c2ncc(C(=O)O)c(Oc3cccc(C#N)c3)n2)cc1	–	4.36	98.9
CCN(CC)c1nc(COn2c(-c3cccc(C#N)c3)nc(C(F)F)c2C(=O)O)cs1	inactive	2.71	–
N#Cc1ccc(Nc2nc(-c3cccc(C#N)c3)ncc2C(=O)O)cc1	–	> 10	84.9
N#Cc1ccc(Nc2nc(-c3ccc(C#N)cc3)ncc2C(=O)O)cc1	–	9.99	91.1
N#Cc1cccc(Nc2nc(-c3cccc(C#N)c3)ncc2C(=O)O)c1	inactive	7.79	–
N#Cc1cccc(-c2nc(C(F)F)c(C(=O)O)n2OCc2ccccn2)c1	–	> 10	75.9
N#Cc1ccc(COn2c(-c3cccc(C#N)c3)nc(C3CC3(F)F)c2C(=O)O)cc1 (centres undefined)	–	2.88	60.1
N#Cc1cccc(-c2nc(C(F)F)c(C(=O)O)n2OCc2nccs2)c1	inactive	2.79	–
N#Cc1ccc(COn2c(-c3cccc(C#N)c3)nc(C(F)F)c2C(=O)O)cc1	–	0.98	77.4
CC1(c2nc(-c3cccc(C#N)c3)n(OCc3ccc(C#N)cc3)c2C(=O)O)CC1	–	2.41	88.1
Cc1nc(-c2cccc(C#N)c2)nc(OCc2ccc(C#N)cc2)c1C(=O)O	inactive	5.02	–
CS(=O)(=O)Nc1cccc(Oc2nc(-c3cccc(C#N)c3)ncc2C(=O)O)c1	–	8.08	79.1
N#Cc1cccc(-c2ncc(C(=O)O)c(Oc3cccnc3)n2)c1	–	> 10	87.6

Compound	Activity (HT-22)	IC50 (Plasma) [µM]	viability at 10 µM (HT-22) [%]
N#Cc1ccc(-c2ncc(C(=O)O)c(OCc3cccc(C#N)c3)n2)cc1	–	3.01	81.1
CCc1nc(-c2cccc(C#N)c2)n(OCc2ccc(C#N)cc2)c1C(=O)O	–	4.09	70.6
N#Cc1ccc(-c2ncc(C(=O)O)c(OCc3ccccc3C#N)n2)cc1	inactive	> 10	–
N#Cc1ccc(COn2c(-c3cccc(C#N)c3)nc(C3CC(F)(F)C3)c2C(=O)O)cc1	inactive	3.11	–
N#Cc1ccc(COn2c(-c3cccc(C#N)c3)nc(C3CCC3)c2C(=O)O)cc1	inactive	1.43	–
N#Cc1ccc(COn2c(-c3cccc(C#N)c3)nc(-c3ccco3)c2C(=O)O)cc1	–	> 10	77.1
N#Cc1ccc(COn2c(-c3cccc(C#N)c3)nc(-c3ccoc3)c2C(=O)O)cc1	inactive	7.61	–
Cc1sc(N2CCOCC2)nc1COn1c(-c2cccc(C#N)c2)nc(C(F)F)c1C(=O)O	–	1.36	64.6
N#Cc1cccc(-c2nc(C(F)F)c(C(=O)O)n2OCc2ccncc2)c1	inactive	5.34	–
N#Cc1cccc(-c2ncc(C(=O)O)c(OCc3ccccc3C#N)n2)c1	–	> 10	95.8
N#Cc1ccc(Oc2nc(-c3ccc(C#N)cc3)ncc2C(=O)O)cc1	–	4.62	91.3
N#Cc1cccc(-c2nc(C(F)F)c(C(=O)O)n2OCc2cnco2)c1	inactive	2.18	–
N#Cc1ccc(COn2c(-c3cccc(C#N)c3)nc(-c3ccccn3)c2C(=O)O)cc1	inactive	9.2	–
N#Cc1ccc(COn2c(-c3cccc(C#N)c3)nc(-c3nccs3)c2C(=O)O)cc1	inactive	4.52	–
N#Cc1cccc(-c2ncc(C(=O)O)c(Oc3ccccc3C#N)n2)c1	inactive	3.37	–
N#Cc1cccc(-c2ncc(C(=O)O)c(Oc3ccn[nH]3)n2)c1	inactive	> 10	–
N#Cc1ccc(-c2ncc(C(=O)O)c(Nc3cccc(C#N)c3)n2)cc1	–	> 10	97.2
N#Cc1ccc(COn2c(-c3cccc(C#N)c3)nc(-c3ccncc3)c2C(=O)O)cc1	inactive	> 10	–
N#Cc1ccc(COn2c(-c3cccc(C#N)c3)nc(C3CCCCC3)c2C(=O)O)cc1	inactive	2.61	–
CC(C)c1nc(-c2cccc(C#N)c2)n(OCc2ccc(C#N)cc2)c1C(=O)O	inactive	1.62	–
